Reference: patent US20240216354A1, “IMMUNOMODULATORY IMIDE DRUGS AS ZETA-CHAIN-ASSOCIATED PROTEIN KINASE 70 (ZAP70) AGONISTS AND USES THEREOF” (Dana-Farber Cancer Institute, Inc., priority 2019, published 2024)

Key:
Assay type in all cases: cell-based
U266 cells = assay: KHYG-1 NK cell cytotoxicity against calcein-AM-labeled U266 cells; conditions: KHYG-1 cells, pomalidomide 0.25-1 μM 24 h, then 4 h with U266 at indicated E/T ratios
Method: KHYG-1 cells were cultured with pomalidomide (0.25-1 μM) for 24 h. (A) Whole cell lysates were subjected to immunoblotting using indicated Abs. (B) KHYG-1 cells were incubated with calcein-AM-stained U266 cells for 4 h at the indicated effector/target (E/T) ratios. Percent specific lysis was calculated as described previously. (C) KHYG-1 cells were transfected with Scsi or Zap-70si, and then cultured with pomalidomide (0.25 μM) for 72 h in the absence of IL-2. Viable cell number was determined, and cells were then incubated with calcein AM-labeled U266 target cells for 4 h at indicated effector/target (E/T) ratios. Percent specific lysis was calculated as described previously. […] Cell growth was assessed by MTT assay. […] Percent specific lysis was calculated as previously described.
(A) KHYG-1 cells were transfected with Scsi or CRBNsi. […] Cells were counted and incubated with calcein AM-labeled U266 for 4 h at indicated effector/target (E/T) ratios.
(A, B) KHYG-1 cells were transfected with scrambled (Sc) or Zap-70 siRNAs, and then cultured for 72 h with lenalidomide (0.5 μM), in the absence of IL-2 (A) The viable cell number was measured by trypan-blue dye exclusion. […] Percent specific lysis was calculated as described previously. *: p<0.01 compared with Scsi.
KHYG-1 cells were transfected with scrambled (Sc) or IKZF3 siRNAs. […] Percent specific lysis was calculated as previously described. […]

Jurkat cells = assay: Jurkat cell growth by MTT assay; conditions: 0.01-1 μM, 72 h
Method: (§1) (A) PBMCs were cultured with pomalidomide (“Pom”) (0.01-1 μM) for 16 h. […] (B) PBMCs were cultured with pomalidomide (0.1 and 1 μM) for the indicated time periods. (C) PBMCs were cultured with lenalidomide (“Len”) (1 μM) for 16 h. (D) Primary T-cells from healthy volunteer were cultured with pomalidomide (0.25-1 μM) for 16 h. (E) Jurkat cells were cultured with pomalidomide (0.5 and 1 μM) for 16 h. Whole cell lysates were subjected to immunoblotting (A-E) using indicated Abs. (F) Jurkat cells were cultured with pomalidomide (0.01-1 μM) or lenalidomide (0.01-1 μM) for 72 h. Cell growth was assessed by MTT assay.

Zap-70 [1] = biological target: T1, Zap-70 (Homo sapiens, UniProt P43403); assay: Immunoblotting of p-Zap-70 and p-LAT in primary T-cells from healthy volunteer; parameters: endogenous in cells; host or cells: primary PBMCs, primary T cells and primary NK cells from healthy volunteers; conditions: pomalidomide 0.25-1 μM, 16 h
T1 sequence (P43403 1-619): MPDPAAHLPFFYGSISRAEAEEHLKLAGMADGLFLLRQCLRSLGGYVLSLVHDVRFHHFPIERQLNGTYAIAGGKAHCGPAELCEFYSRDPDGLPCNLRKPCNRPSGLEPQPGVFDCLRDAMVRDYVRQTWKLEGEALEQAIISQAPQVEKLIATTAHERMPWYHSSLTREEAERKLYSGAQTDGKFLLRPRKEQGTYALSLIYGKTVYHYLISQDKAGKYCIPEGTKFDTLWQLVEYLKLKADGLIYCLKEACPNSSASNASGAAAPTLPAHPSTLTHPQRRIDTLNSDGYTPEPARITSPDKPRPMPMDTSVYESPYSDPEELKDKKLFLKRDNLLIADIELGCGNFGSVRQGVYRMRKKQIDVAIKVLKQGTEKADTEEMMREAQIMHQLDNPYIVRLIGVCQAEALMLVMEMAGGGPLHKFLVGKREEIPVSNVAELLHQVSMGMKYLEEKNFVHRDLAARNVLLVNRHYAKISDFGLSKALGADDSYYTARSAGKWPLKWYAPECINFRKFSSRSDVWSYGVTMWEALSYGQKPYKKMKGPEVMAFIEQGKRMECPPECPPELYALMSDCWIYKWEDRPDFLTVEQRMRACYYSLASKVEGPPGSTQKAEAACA
Method: as §1

Zap-70 [2] = biological target: T1, Zap-70; assay: Immunoblotting of p-Zap-70 in KHYG-1 NK cell line; conditions: KHYG-1 cells, pomalidomide 0.25-1 μM, 24 h
Method: KHYG-1 cells were cultured with pomalidomide (0.25-1 μM) for 24 h. (A) Whole cell lysates were subjected to immunoblotting using indicated Abs. (B) KHYG-1 cells were incubated with calcein-AM-stained U266 cells for 4 h at the indicated effector/target (E/T) ratios. Percent specific lysis was calculated as described previously. (C) KHYG-1 cells were transfected with Scsi or Zap-70si, and then cultured with pomalidomide (0.25 μM) for 72 h in the absence of IL-2. Viable cell number was determined, and cells were then incubated with calcein AM-labeled U266 target cells for 4 h at indicated effector/target (E/T) ratios. Percent specific lysis was calculated as described previously. (D) After transfection with Scsi or Zap-70si, cells were cultured with lenalidomide or pomalidomide for 72 h. Cell growth was assessed by MTT assay. (E) KHYG-1 cells were transfected with scrambled (Scsi) or CRBNsi. The transfectants were then cultured with pomalidomide (0.5 μM) for 24 h, and whole cell lysates were subjected to immunoblotting using indicated Abs. The arrow indicates CRBN expression. (F) Primary NK cells (#1, #2, #3, #4) were isolated from healthy volunteer's PBMCs, as described in Materials and Methods. NK cells were cultured with pomalidomide (0.5 μM) for 24 h, and whole cell lysates were subjected to immunoblotting using indicated Abs. […] Percent specific lysis was calculated as previously described.

SMILES: Nc1cccc2c1C(=O)N(C1CCC(=O)NC1=O)C2=O (centres unmarked) [pomalidomide]
- cytotoxicity against U266 cells (percent specific lysis) (U266 cells): increased their cytotoxicity against U266 cells in a dose-dependent fashion
- proliferation / cell growth (MTT) (Jurkat cells): without altering their proliferation
- p-LAT (immunoblotting) (Zap-70 [1]): induced p-Zap-70 and p-LAT in primary T cells
- p-Zap-70 (immunoblotting) (Zap-70 [1]): induced p-Zap-70 and p-LAT in primary T cells
- p-Zap-70 (immunoblotting) (Zap-70 [2]): similarly enhanced p-Zap-70 in KHYG-1 cells
